# Assay results taken from patent US20220031800A1, “PEPTIDES FOR TREATING NON-EXUDATIVE MACULAR DEGENERATION AND OTHER DISORDERS OF THE EYE” (Allegro Pharmaceuticals, LLC, priority 2019, published 2022).
# Square brackets hold non-standard residues; d marks the D form. Peptide text beside a SMILES is read from it. Cya = N[C@@H](CS(=O)(=O)O)C(=O)O
# Test system: study eye of subjects with intermediate non-exudative AMD
# Experiment: SD-OCT Analysis 2 (thickness, volume, map coverage of retinal layers)
# Type: in vivo, human
# Procedure: Numerous study assessments were conducted at various time points throughout the study. Included among these study assessments were; refractive eye examinations, determinations of BCVA AND low-luminance BCVA, Lanthony D-15 color vision test, measurement of intraocular pressure (IOP), Indirect ophthalmoscopy/dilated fundus examinations and spectral-domain optical coherence tomography (SD-OCT). Also, blood and saliva samples were obtained from each subject for genetic analysis. The above-listed study assessments were performed at the time points indicated in Table 1, below: The OCT scans were analyzed by two (2) unrelated experts. In Analysis #2, the OCT images of study eyes were analyzed to determine mean thickness and mean volume of numerous retinal subfields and layer segments at baseline and at Week 12 for sham eyes and at baseline and at Week 32 for risuteganib eyes, to document any significant differences between groups of eyes based on baseline measurements or changes from baseline in those measurements. In addition to the quantitative analysis of OCT images, OCT Analysis #2 included qualitative assessment of the OCT images to identify GA, pseudodrusen, and disruption of the ELM and EZ layers. FIGS. 9A, 9B and 9C illustrate the level of varying pathology within the ELM based on quantitative mapping that were also assessed, with FIG. 9A (left) showing no ELM disruption, FIG. 9B (center) showing segmental disruption, and FIG. 9C showing diffuse disruption.
# [1] = change from baseline at Week 32, risuteganib super-responder eyes, n = 8
# [2] = paired change from baseline at Week 32, risuteganib arm n = 24
# [3] = paired difference from baseline at Week 32, risuteganib arm n = 24
smiles,measurement,setting,value
"C[C@@H](O)[C@H](NC(=O)[C@H](CS(=O)(=O)O)NC(=O)CNC(=O)[C@H](CCCNC(=N)N)NC(=O)CN)C(=O)N1CCC[C@H]1C(=O)O [risuteganib, Glycyl-L-arginylglycyl-3-sulfo-L-alanyl-L-threonyl-L-proline] (H-GRG[Cya]TP-OH)","Change in mean thickness, ELM-RPE mid subfield",[1],−2.493 μm
same,"Change in mean thickness, EZ-RPE central subfield",[1],−1.803 μm
same,"Change in mean thickness, EZ-RPE foveal center",[1],6.825 μm
same,"Change in mean thickness, EZ-RPE mid subfield",[1],−1.445 μm
same,"Change in mean thickness, Inner retina central subfield",[1],8.759 μm
same,"Change in mean thickness, Inner retina mid subfield",[1],8.511 μm
same,"Change in mean thickness, ONL-EZ central subfield",[1],−9.158 μm
same,"Change in mean thickness, ONL-EZ mid subfield",[1],−8.556 μm
same,"Change in mean thickness, ONL-RPE central subfield",[1],−10.961 μm
same,"Change in mean thickness, ONL-RPE foveal center",[1],−6.825 μm
same,"Change in mean thickness, ONL-RPE mid subfield",[1],−10.001 μm
same,"Change in mean thickness, RPE-BM central subfield",[1],−11.226 μm
same,"Change in mean thickness, RPE-BM foveal center",[1],−14.381 μm
same,"Change in mean thickness, RPE-BM mid subfield",[1],−6.715 μm
same,"Change in mean thickness, Total retinal central subfield",[1],−2.202 μm
same,"Change in mean thickness, Total retinal foveal center",[1],−7.569 μm
same,"Change in mean thickness, Total retinal mid subfield",[1],−1.490 μm
same,"Change in volume, ELM-EZ central subfield",[1],−0.001 mm^3
same,"Change in volume, ELM-EZ mid subfield",[1],−0.003 mm^3
same,"Change in volume, ELM-RPE",[1],0.171 mm^3
same,"Change in volume, ELM-RPE central subfield",[1],−0.003 mm^3
same,"Change in volume, ELM-RPE mid subfield",[1],−0.008 mm^3
same,"Change in volume, EZ-RPE",[1],−0.051 mm^3
same,"Change in volume, EZ-RPE central subfield",[1],−0.001 mm^3
same,"Change in volume, EZ-RPE mid subfield",[1],−0.005 mm^3
same,"Change in volume, ONL-EZ central subfield",[1],−0.007 mm^3
same,"Change in volume, ONL-EZ mid subfield",[1],−0.027 mm^3
same,"Change in volume, ONL-RPE",[1],0.044 mm^3
same,"Change in volume, ONL-RPE central subfield",[1],−0.008 mm^3
same,"Change in volume, ONL-RPE mid subfield",[1],−0.032 mm^3
same,"Change in volume, RPE-BM",[1],−0.048 mm^3
same,"Change in volume, RPE-BM central subfield",[1],−0.009 mm^3
same,"Change in volume, RPE-BM mid subfield",[1],−0.021 mm^3
same,"Change in volume, Total retinal",[1],−0.247 mm^3
same,"Change in volume, Total retinal central subfield",[1],−0.001 mm^3
same,"Change in volume, Total retinal mid subfield",[1],−0.005 mm^3
same,"Map coverage, 0 μm EZ",[1],5.026%
same,"Map coverage, 0 μm RPE-BM",[1],1.546%
same,"Map coverage, 10 μm EZ",[1],5.037%
same,"Map coverage, 20 μm EZ",[1],4.506%
same,"Map coverage, 50 μm RPE-BM",[1],−3.222%
same,"Map coverage, 150 μm RPE-BM",[1],2.943%
same,"Map coverage, 250 μm RPE-BM",[1],−0.017%
same,"Change in mean (SD) thickness, ELM-EZ central subfield",[2],−1.827 μm
same,"Change in mean (SD) thickness, ELM-EZ mid subfield",[2],−0.106 μm
same,"Change in mean (SD) thickness, ELM-RPE central subfield",[2],−2.912 μm
same,"Change in mean (SD) thickness, ELM-RPE foveal center",[2],−6.094 μm
same,"Change in mean (SD) thickness, ELM-RPE mid subfield",[2],−1.593 μm
same,"Change in mean (SD) thickness, EZ-RPE central subfield",[2],−1.085 μm
same,"Change in mean (SD) thickness, EZ-RPE foveal center",[2],−0.407 μm
same,"Change in mean (SD) thickness, EZ-RPE mid subfield",[2],−1.486 μm
same,"Change in mean (SD) thickness, Inner retina central subfield",[2],3.880 μm
same,"Change in mean (SD) thickness, Inner retina mid subfield",[2],3.893 μm
same,"Change in mean (SD) thickness, ONL-EZ central subfield",[2],−6.131 μm
same,"Change in mean (SD) thickness, ONL-EZ mid subfield",[2],−4.954 μm
same,"Change in mean (SD) thickness, ONL-RPE central subfield",[2],−7.216 μm
same,"Change in mean (SD) thickness, ONL-RPE foveal center",[2],−3.488 μm
same,"Change in mean (SD) thickness, ONL-RPE mid subfield",[2],−6.441 μm
same,"Change in mean (SD) thickness, RPE-BM central subfield",[2],−4.178 μm
same,"Change in mean (SD) thickness, RPE-BM foveal center",[2],−8.126 μm
same,"Change in mean (SD) thickness, RPE-BM mid subfield",[2],−2.086 μm
same,"Change in mean (SD) thickness, Total retinal central subfield",[2],−3.336 μm
same,"Change in mean (SD) thickness, Total retinal foveal center",[2],−4.154 μm
same,"Change in mean (SD) thickness, Total retinal mid subfield",[2],−2.548 μm
same,"Change in volume, ELM-EZ central subfield",[2],−0.001 mm^3
same,"Change in volume, ELM-EZ mid subfield",[2],0.000 mm^3
same,"Change in volume, ELM-RPE",[2],0.048 mm^3
same,"Change in volume, ELM-RPE central subfield",[2],−0.002 mm^3
same,"Change in volume, ELM-RPE mid subfield",[2],−0.005 mm^3
same,"Change in volume, EZ-RPE",[2],−0.027 mm^3
same,"Change in volume, EZ-RPE central subfield",[2],−0.001 mm^3
same,"Change in volume, EZ-RPE mid subfield",[2],−0.005 mm^3
same,"Change in volume, ONL-EZ central subfield",[2],−0.005 mm^3
same,"Change in volume, ONL-EZ mid subfield",[2],−0.016 mm^3
same,"Change in volume, ONL-RPE",[2],−0.009 mm^3
same,"Change in volume, ONL-RPE central subfield",[2],−0.005 mm^3
same,"Change in volume, ONL-RPE mid subfield",[2],−0.020 mm^3
same,"Change in volume, RPE-BM",[2],−0.006 mm^3
same,"Change in volume, RPE-BM central subfield",[2],−0.003 mm^3
same,"Change in volume, RPE-BM mid subfield",[2],−0.007 mm^3
same,"Change in volume, Total retinal",[2],−0.048 mm^3
same,"Change in volume, Total retinal central subfield",[2],−0.002 mm^3
same,"Change in volume, Total retinal mid subfield",[2],−0.008 mm^3
same,"Map coverage, 0 μm EZ",[3],2.574%
same,"Map coverage, 0 μm RPE-BM",[3],1.282%
same,"Map coverage, 10 μm EZ",[3],2.515%
same,"Map coverage, 20 μm EZ",[3],2.431%
same,"Map coverage, 50 μm RPE-BM",[3],−2.644%
same,"Map coverage, 150 μm RPE-BM",[3],2.739%
same,"Map coverage, 250 μm RPE-BM",[3],−0.006%
